Measurements from US20250057808A1, “COMPOSITION COMPRISING BETA LACTAM FOR TREATING ALCOHOL DEPENDENCE AND ALCOHOL ASSOCIATED DISEASES OR CONDITIONS” (Temple University of the Commonwealth System of Higher …, priority 2023, published 2025).
Entries after “also recorded” stand apart in the source; their conditions may differ.

Tests used:
Type in all cases: in vivo, Male P rats
[1] = Ethanol drinking, further studies with MC-100093 100 mg/kg
Protocol: We used an ethanol drinking paradigm as described previously by Alhaddad, et al. (2014). Briefly, animals started the experimental drinking procedure at age of 90 days. The animals had five weeks of exposure to continuous three-bottle choice drinking, 0%, 15% and 30%, v/v ethanol in water, available concurrently. Daily measurement of ethanol intake was performed (g of ethanol intake/kg of body weight/day). We measured the baseline ethanol drinking by average the intake during the last three weeks. Three groups of P rats (n=8-9/group) exposed to the five weeks ethanol exposure. At week 6, rats in each group received daily intraperitoneal injection of either MC-100093 at dose of 50 mg/kg (Ethanol-MC group), Ceftriaxone at dose of 200 mg/kg (Ethanol-CEF group, which also serves as positive control), or equivolume of saline vehicle (Ethanol group) for five days. This paradigm results in pharmacologically relevant blood alcohol concentration (50-200 mg %). Following the criteria for the development of ethanol dependence, rats whose average ethanol intake <4 g/kg/day were excluded from the study. Beside the ethanol exposed groups, another group of P rats (n=8) exposed to only water and food throughout the exposure procedures (control group).
Further studies were conducted to investigate the impact of MC-100093 at higher dose (100 mg/kg, i.p.) on ethanol consumption and glutamate transporter 1 (GLT-1) expression in medial prefrontal cortex (mPFC) subregions such as prelimbic mPFC (PL) and infralimbic mPFC (IL). Male P rats (n=16) were divided in three groups: a) Control water group was exposed to water only for 5 weeks and received i.p. saline on Week 6 for 5 days; b) Saline group was exposed to free choice of ethanol (15% and 30% and water) for 5 weeks, and received saline (i.p.) on Week 6 for 5 days; and c) MC-100093 group was exposed to free choice of ethanol for 5 weeks and received MC-100093 (100 mg/kg/day, i.p.) for 5 days on Week 6.

[2] = system: RAGE; assay: Western blot RAGE in subregions of mPFC and NAc
Protocol: (§1) All P rats were euthanized by CO2 inhalation and decapitated with a guillotine 24 hours after the final i.p. injection was administered on Day 6 of Week 6. Brains were removed and immediately frozen on dry ice and stored at −80° C. The mPFC subregions (infralimbic cortex and prelimbic cortex) and NAc subregions (core and shell) were dissected using a cryostat machine kept at −20° C. Surgical blades were used to dissect all brain regions following visualized landmarks using the stereotaxic coordinates provided by Paxinos and colleague's rat brain stereotactic atlas. All brain regions were stored in −80° C. Western Blot analyses.
(§2) Western blot was performed to determine the expression of BDNF, TNF-α, RAGE, HMGβ-1, and β-tubulin in the subregions of mPFC and NAc as preformed in previous studies.
(§3) Brain samples were lysed with a lysing buffer containing protease inhibitors. The amount of protein in each sample was quantified using a detergent compatible protein assay (Bio-Rad, Hercules, CA, USA). Polyacrylamide gels (10%) were loaded with the lysate mixture, and proteins were separated using gel electrophoresis for 1 hour. Proteins were then transferred from the gels onto Polyvinylidene difluoride (PVDF) membranes (BioRad). After transfer, membranes were incubated for 30 minutes in a mixture of nonfat milk in 1×Tris-buffered saline with Tween-20 (TBST) at room temperature. Membranes were then incubated at 4° C. for 24 hours with primary antibodies: anti-rabbit BDNF (1:1000, Abeam, #ab108319), anti-rabbit TNF-α (1:500, Abeam, #ab9739), anti-rabbit HMGβ-1 (1:500, Abeam, #ab18256), and anti-rabbit RAGE (1:1000, Abeam, #ab37407). Anti-mouse-β-tubulin (1:1000, Cell Signaling Technology, #D71G9) was used as a loading control antibody. After incubating for 24 hours, secondary antibody such as donkey anti-rabbit (1:4000, Invitrogen, #31458) or anti-mouse (1:4000, Cell Signaling, #7076S) was added to the membrane for 1 hour at room temperature. The membranes were then washed with 1×TBST three times for 5 minutes each and then dried. Membranes were then incubated in chemiluminescent reagents (Super Signal West Pico, Pierce Inc.) for 2 minutes. Blot images were developed using ChemiDoc. Imaging System and ImageJ software version 1.53a were used to quantify and analyze the expression of BDNF, TNF-α, RAGE, HMGβ-1, and β-tubulin.
(§4) The data for the water/saline control group were expressed as 100% based on the values corresponding to the ethanol/saline and ethanol/MC-100093 groups for each set of blotting. Thus, the expression of selected proteins for each group (ethanol/saline group or ethanol/MC-100093 group) was calculated relative to the water/saline control group being set to 100%.
(§5) Statistical analyses were performed using GraphPad Prism Version 10. Two-way repeated measures ANOVA followed by Bonferroni post-hoc tests were used to compare water and ethanol intake, and body weight, amongst water group, ethanol/saline group and ethanol/MC-100093 group. A one-way ANOVA test was performed to compare the expression of the studied proteins in selected brain regions in water/saline, ethanol/saline and ethanol/MC-100093 groups. Statistical significance was determined by a p-value of or less than 0.05.

[3] = system: TNF-α; assay: Western blot TNF-α in subregions of mPFC and NAc
Protocol: as §1, §2, §3, §4, §5

[4] = 100 mg/kg i.p., compared to ethanol/saline group
[5] = post-treatment with MC-100093 100 mg/kg i.p., 100 mg/kg

C[C@@H](O)[C@H]1C(=O)N[C@@H]1[C@@H](C)C(=O)N1CCN(C)CC1 [MC-100093]
Reduction in ethanol consumption as compared to control vehicle group ([1]; MC-100093 100 mg/kg i.p.): about 50% | Body weight (grams) ([1]; MC-100093 100 mg/kg i.p. 5 days): no significant effects | Water intake (mL/day) ([1]; MC-100093 100 mg/kg i.p. 5 days, vs ethanol/saline, 100 mg/kg): significant increase in water intake; also recorded: increase in water consumption was observed on Days 1-5 | Ethanol consumption (g/kg/24 hr) ([1]; male P rats, MC-100093 100 mg/kg i.p. 5 days on Week 6, vs ethanol/saline, 100 mg/kg): attenuated ethanol intake; also recorded: significantly reduced ethanol consumption on Day 1, 3, 4, and 5; also recorded: reduced ethanol intake on Days 2, 4, 5, 6; also recorded: effect similar to that of ceftriaxone | Ethanol preference ([1]; male P rats, MC-100093 100 mg/kg/day i.p. 5 days): decreased ethanol preference | Decrease in RAGE expression in the IL [2, 4]: 14% | Decrease in RAGE expression in the NAc core [2, 4]: 12% | RAGE expression in the NAc shell [2, 4]: decreased RAGE expression | RAGE expression in the PL [2, 4]: decreased RAGE expression | RAGE expression in subregions of mPFC and NAc (summary) [2, 5]: normalized RAGE expression; also recorded: attenuated ethanol-induced increase in receptor for advanced glycation end products (RAGE) | TNF-α expression in the IL [3, 4]: decreased significantly TNF-α expression | TNF-α expression in the NAc core [3, 4]: decreased significantly TNF-α expression | TNF-α expression in the NAc shell [3, 4]: decreased TNF-α expression | TNF-α expression in the PL [3, 4]: significantly decreased the expression of TNF-α | TNF-α expression in IL, PL, NAc core and NAc shell (summary) [3, 5]: normalized TNF-α expression in all these brain regions; also recorded: attenuated ethanol-induced upregulation of pro-inflammatory cytokines such as TNF-a and HMGB1
